Measurements taken from patent publication EP4707280A1, “1,4-CINEOLE DERIVATIVE AND INTERMEDIATE THEREOF, HERBICIDE CONTAINING SAID DERIVATIVE AS ACTIVE INGREDIENT, METHOD FOR USING HERBICIDE, AND METHOD FOR PREPARING AGROCHEMICAL COMPOSITION” (HOKKO CHEMICAL INDUSTRY CO., LTD., priority 2023, dated 2024).

Legend:
Type in all cases: in vivo
[1] = tested on: Echinochloa crus-galli; assay: Test Example 4: herbicidal effect test by stem and leaf treatment in upland field; details: Echinochloa crus-galli; 120 g per 10 ares; sprayed seven days after sowing, upland soil; 14 days after application; read-out: weed inhibition rate
[2] = tested on: Echinochloa crus-galli; assay: Test Example 8: herbicidal effect test by stem and leaf treatment in upland field (low dose); details: Echinochloa crus-galli; 7.5 g per 10 ares; sprayed seven days after sowing, upland soil; 14 days after application; read-out: weed inhibition rate
[3] = tested on: Digitaria ciliaris; assay: as above; details: Digitaria ciliaris; 7.5 g per 10 ares; sprayed seven days after sowing, upland soil; 14 days after application; read-out: weed inhibition rate
[4] = tested on: Echinochloa crus-galli var. formosensis; assay: Test Example 5: herbicidal effect test by soil application in paddy rice (low dose); details: Echinochloa crus-galli, soil, 336 h; 7.5 g per 10 ares; applied immediately after sowing, flooded pots; 14 days after application; read-out: weed inhibition rate
Procedure, shortened: (§1)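 Paddy-soil pots, weeds sown 0–1 cm deep and flooded to about 3 cm in a greenhouse. Emulsifiable concentrate diluted in water and dropped in right after sowing at 7.5 g active ingredient per 10 ares. Duplicates; effect scored 14 days after application.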

[5] = tested on: Echinochloa crus-galli; assay: Test Example 3: herbicidal effect test by soil application in upland field; details: Echinochloa crus-galli, 120 g per 10 ares, sprayed one day after sowing, 14 days after application, read-out: weed inhibition rate
Procedure, shortened: (§2)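 Weed inhibition (%) was assessed 14 days after treatment, in duplicate per concentration group. Seeds had been mixed into the upper 1 cm of upland alluvial loam, and the soil surface was sprayed one day later with the diluted emulsifiable concentrate at 120 g active ingredient per 10 ares.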

[6] = tested on: Digitaria ciliaris; assay: as above; details: Digitaria ciliaris, 120 g per 10 ares, sprayed one day after sowing, 14 days after application, read-out: weed inhibition rate
Procedure, shortened: as §2

[7] = tested on: Monochoria vaginalis; assay: Test Example 1: herbicidal effect test by soil application in paddy rice; details: Pontederia vaginalis, soil, 336 h; 120 g active ingredient per 10 ares; applied immediately after sowing, flooded pots; 14 days after application; read-out: weed inhibition rate
Procedure, shortened: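 Inhibition rate (%) read 14 days after treatment, duplicate pots. Water-diluted emulsifiable concentrate was applied by dropper at 120 g active ingredient/10 ares right after sowing. Seeds (30 per species, 0–1 cm deep) went into puddled paddy soil kept flooded at about 3 cm in a greenhouse.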

[8] = tested on: Monochoria vaginalis; assay: Test Example 5: herbicidal effect test by soil application in paddy rice (low dose); details: Pontederia vaginalis, 336 h, 7.5 g per 10 ares, applied immediately after sowing, flooded pots, 14 days after application, read-out: weed inhibition rate
Procedure, shortened: as §1

[9] = tested on: Scirpus juncoides; assay: as above; details: Schoenoplectiella juncoides, 336 h, 7.5 g per 10 ares, applied immediately after sowing, flooded pots, 14 days after application, read-out: weed inhibition rate
Procedure, shortened: as §1

[10] = tested on: Digitaria ciliaris; assay: Test Example 4: herbicidal effect test by stem and leaf treatment in upland field; details: Digitaria ciliaris; 120 g per 10 ares; sprayed seven days after sowing, upland soil; 14 days after application; read-out: weed inhibition rate

Cc1ccccc1CO[C@@H]1C[C@]2(C(C)C)O[C@@]1(C)CC2=O [2-3, (1R,4S,5R)-1-isopropyl-4-methyl-5-((2-methylbenzyl)oxy)-7-oxabicyclo[2.2.1]heptan-2-one]
≥ 80%: inhibition at 1200 g/ha [1] | inhibition at 75 g/ha [2] | inhibition at 75 g/ha [3] | inhibition at 75 g/ha [4] | inhibition at 1200 g/ha [5] | inhibition at 1200 g/ha [6] | pest or weed control at 1200 g/ha [7] | inhibition at 75 g/ha [8] | inhibition at 75 g/ha [9] | inhibition at 1200 g/ha [10]

CC(C)[C@]12C[C@@H](OCc3ccc(F)cc3)[C@](C)(C[C@@H]1Br)O2 [1-691, (1S,2R,4R,5S)-5-bromo-2-[(4-fluorophenyl)methoxy]-1-methyl-4-isopropyl-7-oxabicyclo[2.2.1]heptane]
≥ 80%: inhibition at 1200 g/ha [1] | inhibition at 75 g/ha [2] | inhibition at 75 g/ha [3] | inhibition at 75 g/ha [4] | inhibition at 1200 g/ha [5] | inhibition at 1200 g/ha [6] | pest or weed control at 1200 g/ha [7] | inhibition at 75 g/ha [8] | inhibition at 75 g/ha [9] | inhibition at 1200 g/ha [10]

CCO[C@H]1C[C@]2(C)O[C@@]1(C(C)C)C[C@H]2OCc1ccccc1F [1-183, (1S,2R,4R,5S)-5-ethoxy-2-[(2-fluorophenyl)methoxy]-1-methyl-4-isopropyl-7-oxabicyclo[2.2.1]heptane]
≥ 80%: inhibition at 1200 g/ha [1] | inhibition at 75 g/ha [2] | inhibition at 75 g/ha [3] | inhibition at 75 g/ha [4] | inhibition at 1200 g/ha [5] | inhibition at 1200 g/ha [6] | pest or weed control at 1200 g/ha [7] | inhibition at 75 g/ha [8] | inhibition at 75 g/ha [9] | inhibition at 1200 g/ha [10]

CC(C)[C@]12C[C@@H](OCc3ccccc3Br)[C@](C)(CC1=O)O2 [2-13, (1R,4S,5R)-5-((2-bromobenzyl)oxy)-1-isopropyl-4-methyl-7-oxabicyclo[2.2.1]heptan-2-one]
≥ 80%: inhibition at 1200 g/ha [1] | inhibition at 75 g/ha [2] | inhibition at 75 g/ha [3] | inhibition at 75 g/ha [4] | inhibition at 1200 g/ha [5] | inhibition at 1200 g/ha [6] | pest or weed control at 1200 g/ha [7] | inhibition at 75 g/ha [8] | inhibition at 75 g/ha [9] | inhibition at 1200 g/ha [10]

C=CCO[C@@H]1C[C@]2(C)O[C@@]1(C(C)C)C[C@H]2OCc1ccccc1F [1-930, (1S,2R,4R,5R)-2-[(2-fluorophenyl)methoxy]-1-methyl-4-isopropyl-5-prop-2-enoxy-7-oxabicyclo[2.2.1]heptane]
≥ 80%: inhibition at 1200 g/ha [1] | inhibition at 75 g/ha [2] | inhibition at 75 g/ha [3] | inhibition at 75 g/ha [4] | inhibition at 1200 g/ha [5] | inhibition at 1200 g/ha [6] | pest or weed control at 1200 g/ha [7] | inhibition at 75 g/ha [8] | inhibition at 75 g/ha [9] | inhibition at 1200 g/ha [10]

CC(C)[C@]12C[C@@H](OCc3ccccc3Cl)[C@](C)(C[C@@H]1Br)O2 [1-20, (1S,2R,4R,5S)-5-bromo-2-[(2-chlorophenyl)methoxy]-1-methyl-4-isopropyl-7-oxabicyclo[2.2.1]heptane]
≥ 80%: inhibition at 1200 g/ha [1] | inhibition at 75 g/ha [2] | inhibition at 75 g/ha [3] | inhibition at 75 g/ha [4] | inhibition at 1200 g/ha [5] | inhibition at 1200 g/ha [6] | pest or weed control at 1200 g/ha [7] | inhibition at 75 g/ha [8] | inhibition at 75 g/ha [9] | inhibition at 1200 g/ha [10]

CC(C)[C@]12C[C@@H](OCc3ccccc3F)[C@](C)(CC1C)O2 (stereo partly drawn) [1-92, (1S,2R,4R)-2-((2-fluorobenzyl)oxy)-4-isopropyl-1,5-dimethyl-7-oxabicyclo[2.2.1]heptane]
≥ 80%: inhibition at 1200 g/ha [1] | inhibition at 75 g/ha [2] | inhibition at 75 g/ha [3] | inhibition at 75 g/ha [4] | inhibition at 1200 g/ha [5] | inhibition at 1200 g/ha [6] | pest or weed control at 1200 g/ha [7] | inhibition at 75 g/ha [8] | inhibition at 75 g/ha [9] | inhibition at 1200 g/ha [10]

C=C1C[C@]2(C)O[C@@]1(C(C)C)C[C@H]2OCc1ccccc1F [2-88, (1R,4S,5R)-5-((2-fluorobenzyl)oxy)-1-isopropyl-4-methyl-2-methylene-7-oxabicyclo[2.2.1]heptane]
≥ 80%: inhibition at 1200 g/ha [1] | inhibition at 75 g/ha [2] | inhibition at 75 g/ha [3] | inhibition at 75 g/ha [4] | inhibition at 1200 g/ha [5] | inhibition at 1200 g/ha [6] | pest or weed control at 1200 g/ha [7] | inhibition at 75 g/ha [8] | inhibition at 75 g/ha [9] | inhibition at 1200 g/ha [10]

C#CCO[C@@H]1C[C@]2(C)O[C@@]1(C(C)C)C[C@H]2OCc1ccccc1F [1-931, (1S,2R,4R,5R)-2-[(2-fluorophenyl)methoxy]-1-methyl-4-isopropyl-5-prop-2-ynoxy-7-oxabicyclo[2.2.1]heptane]
≥ 80%: inhibition at 1200 g/ha [1] | inhibition at 75 g/ha [2] | inhibition at 75 g/ha [3] | inhibition at 75 g/ha [4] | inhibition at 1200 g/ha [5] | inhibition at 1200 g/ha [6] | pest or weed control at 1200 g/ha [7] | inhibition at 75 g/ha [8] | inhibition at 75 g/ha [9] | inhibition at 1200 g/ha [10]

Cc1cccc(C)c1CO[C@@H]1C[C@]2(C(C)C)O[C@@]1(C)CC2=O [2-5, (1R,4S,5R)-5-((2,6-dimethylbenzyl)oxy)-1-isopropyl-4-methyl-7-oxabicyclo[2.2.1]heptan-2-one]
≥ 80%: inhibition at 1200 g/ha [1] | inhibition at 75 g/ha [2] | inhibition at 75 g/ha [3] | inhibition at 75 g/ha [4] | inhibition at 1200 g/ha [5] | inhibition at 1200 g/ha [6] | pest or weed control at 1200 g/ha [7] | inhibition at 75 g/ha [8] | inhibition at 75 g/ha [9] | inhibition at 1200 g/ha [10]

CC(C)[C@]12C[C@@H](OCc3ccccc3)[C@](C)(C[C@@H]1Br)O2 [1-15, (1S,2R,4R,5S)-5-bromo-1-methyl-2-phenylmethoxy-4-isopropyl-7-oxabicyclo[2.2.1]heptane]
≥ 80%: inhibition at 1200 g/ha [1] | inhibition at 75 g/ha [2] | inhibition at 75 g/ha [3] | inhibition at 75 g/ha [4] | inhibition at 1200 g/ha [5] | inhibition at 1200 g/ha [6] | pest or weed control at 1200 g/ha [7] | inhibition at 75 g/ha [8] | inhibition at 75 g/ha [9] | inhibition at 1200 g/ha [10]

CC(C)[C@]12C[C@@H](OCc3ccccc3F)[C@](C)(C[C@@H]1OCC1CC1)O2 [1-1603, (1S,2R,4R,5S)-5-(cyclopropylmethoxy)-2-[(2-fluorophenyl)methoxy]-1-methyl-4-isopropyl-7-oxabicyclo[2.2.1]heptane]
≥ 80%: inhibition at 1200 g/ha [1] | inhibition at 75 g/ha [2] | inhibition at 75 g/ha [3] | inhibition at 75 g/ha [4] | inhibition at 1200 g/ha [5] | inhibition at 1200 g/ha [6] | pest or weed control at 1200 g/ha [7] | inhibition at 75 g/ha [8] | inhibition at 75 g/ha [9] | inhibition at 1200 g/ha [10]

Cc1ccccc1CO[C@@H]1C[C@]2(C(C)C)O[C@@]1(C)C[C@@H]2I [1-741, (1S,2R,4R,5S)-5-iodo-1-methyl-2-[(2-methylphenyl)methoxy]-4-isopropyl-7-oxabicyclo[2.2.1]heptane]
≥ 80%: inhibition at 1200 g/ha [1] | inhibition at 75 g/ha [2] | inhibition at 75 g/ha [3] | inhibition at 75 g/ha [4] | inhibition at 1200 g/ha [5] | inhibition at 1200 g/ha [6] | pest or weed control at 1200 g/ha [7] | inhibition at 75 g/ha [8] | inhibition at 75 g/ha [9] | inhibition at 1200 g/ha [10]
